Earlier results, collected in patent US20120148662A1, “Formulation” (priority 2010, published 2012).

What was measured:
[1] = dosed conventionally

SMILES: CCC(CC)CC1(C(=O)Nc2ccccc2SC(=O)C(C)C)CCCCC1 [dalcetrapib, S-[2-([[1-(2-ethylbutyl)-cyclohexyl]-carbonyl]amino)phenyl]2-methylpropanethioate]
- aqueous solubility: extremely low
- oral bioavailability [1]: low
